Reference: patent US10988523B2, “Modified lipidated Relaxin B chain peptides and their therapeutic use” (Sanofi, priority 2018, dated 2021)
≈ marks a conversion by molar mass, not a printed value. Read-outs that look alike come from different tables or passages of the source. *1 amine or outer side, *2 acyl side, *3 side chain or, on linkers, in order; H or OH if unused. Where a SMILES comes first, the peptide text is derived from it. Side-chain parts run from the residue outwards. [ ]: non-standard residue; d: D form. The star is where a group is joined. X7 = CCCCCCCCCCCCCCCCCC(=O)N[C@@H](CCC(=O)N[C@@H](CCC(=O)N[C@@H](CCC(=O)NCCCOCCOCCOCCCNC(=O)COCC(=O)NCCCOCCOCCOCCCNC(=O)COCC(=O)*)C(=O)O)C(=O)O)C(=O)O; PEG12 = NCCOCCOCCOCCOCCOCCOCCOCCOCCOCCOCCOCCOCCC(=O)O; γGlu = O=C(O)[C@H](CCC(=O)[*:2])N[*:1]; Palmitoyl = CCCCCCCCCCCCCCCC(=O)*; Nle = CCCC[C@H](N)C(=O)O; AEEA = NCCOCCOCC(=O)O; Aib = CC(C)(N)C(=O)O

Assays:
[1] = Solubility testing of peptides in buffer; assay type: physicochemical
Experimental: Prior to the testing of solubility of a peptide batch, its purity (HPLC-UV) was determined.
Acetate Buffer 50 mM pH4.5: 0.75 g […], 3H2O (Sigma 57545)+0.35 ml CH3CO2H 100% solution dissolved in Millipore water, adjusted to pH with diluted (1:1) CH3CO2H and diluted to 250 ml with Millipore water.
In a 4 ml Ependorph vial, an accurately weighed sample of compound was diluted in study media to obtain target concentration of 2, 6 or 10 mg/ml of pure compound. The sample vials were shacked (rock 'roll shaker) for ˜19 h. 3004, Aliquots ( ) were filtered through a Millipore “Solvinert” plate (0.45 μm—PTFE hydrophilic).
pH was measured with a micro electrode
Waters Acquity UPLC System with DAD detector
Column: Waters Peptide Column CSH C18 (130 Å; 1.7 μm; 50*2.1 mm)
Column temperature: 60° C.
Full loop (about 5 μL)—overfill factor 5
Weak et Strong wash: H2O/ACN (75/25; V/V); Seal wash: H2O/IsOH (95/5; V/V). Mobile phase:
Solvent A: 0.05% TFA in H2O; Solvent B: 0.035% TFA in CH3CN
Gradient: from 0 to 12 min B=2% to 60%, from 12 to 14 min B=60% to 100%. Column washing 100% B 1 min, column equilibration 2% B 2.5 min.
UV detector: wavelength: 220 nm.

RXFP1 = target: T1, RXFP1 (Homo sapiens, UniProt Q9HBX9); assay: OVCAR5 cAMP assay (HTRF), RXFP1 agonist activity; assay type: cell-based; settings: for EC50: OVCAR5 cells, cAMP HTRF, read-out: EC50 (nM), OVCAR 5 cells (cAMP); for Emax: OVCAR-5, maximal cAMP relative to H2-relaxin maximum (100%), read-out: EMax, OVCAR 5 cells (cAMP)
T1 construct: OVCAR5 cells expressing endogenous RXFP1; endogenous in cells; host or cells: OVCAR5 cells
T1 sequence (Q9HBX9 1-757): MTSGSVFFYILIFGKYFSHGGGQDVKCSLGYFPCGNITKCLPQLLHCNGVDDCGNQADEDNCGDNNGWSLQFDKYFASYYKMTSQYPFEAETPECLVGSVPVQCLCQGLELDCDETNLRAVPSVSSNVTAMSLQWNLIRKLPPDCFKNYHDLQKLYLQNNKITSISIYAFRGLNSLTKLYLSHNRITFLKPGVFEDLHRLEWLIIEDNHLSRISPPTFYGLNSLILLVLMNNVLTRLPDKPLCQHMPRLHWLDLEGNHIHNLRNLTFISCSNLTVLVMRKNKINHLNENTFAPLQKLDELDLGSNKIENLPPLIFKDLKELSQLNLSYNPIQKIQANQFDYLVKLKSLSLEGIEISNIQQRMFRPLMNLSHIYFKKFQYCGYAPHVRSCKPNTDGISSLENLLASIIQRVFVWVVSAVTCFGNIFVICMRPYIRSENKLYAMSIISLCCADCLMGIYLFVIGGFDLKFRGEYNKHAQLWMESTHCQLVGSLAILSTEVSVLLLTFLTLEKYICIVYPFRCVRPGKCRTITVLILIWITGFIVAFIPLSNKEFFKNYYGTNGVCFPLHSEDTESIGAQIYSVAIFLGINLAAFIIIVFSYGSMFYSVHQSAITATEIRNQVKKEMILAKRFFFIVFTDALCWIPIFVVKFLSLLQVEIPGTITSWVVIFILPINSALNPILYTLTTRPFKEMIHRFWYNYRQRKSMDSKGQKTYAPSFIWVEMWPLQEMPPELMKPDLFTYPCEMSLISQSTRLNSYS
In short: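 OVCAR5 cells (endogenous RXFP1) pretreated 40 min at 37° C with 1 mM IBMX, then exposed to peptides in serum-free medium for 30 min at 37° C. Lysate cAMP read by HTRF; EC50 from variable-slope sigmoidal fit; Emax as % of H2-relaxin maximal cAMP in same run.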

[2] = Pharmacokinetic (PK) determination after i.v. or s.c. administration to rats; assay type: in vivo, Sprague Dawley rats; settings: Sprague Dawley, Rat PK; for C0 / half-life: iv, 1 mg/kg i.v.; for C0: extrapolated plasma concentration at t=0, read-out: C0; for half-life / Cmax / Tmax / bioavailability: plasma; for half-life: read-out: T½ (converted); for Cmax / Tmax: sc, 3 mg/kg s.c.; for bioavailability: subcutaneous, 3 mg/kg s.c. vs 1 mg/kg i.v., dose-corrected AUC ratio
In short: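 Sprague Dawley rats received peptide in PBS at 1 mg/kg i.v. or 3 mg/kg s.c., dose corrected for salts, solvent and purity. Plasma analysed by LC/MS after protein precipitation; non-compartmental PK, BLQ values set to zero, F% as dose-corrected s.c./i.v. AUC ratio.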

[3] = Stability testing of peptides in rat plasma or blood; assay type: in vitro ADME; settings: 37° C.
Experimental: (§1) Prior to the testing of stability in plasma (or blood) of a peptide batch, its purity (HPLC-UV) was determined.
(§2) Rat and Human plasma: anti-coagulant sodium or lithium heparin.
(§3) Rat and Human blood: anti-coagulant sodium or lithium heparin. • Stock solution: • 100 μM solution of study compound in 50 mM Phosphate buffer pH 7.4. • 950 μL plasma (or blood) was pre-incubated for 5 min at 37° C. 50 μL of compound stock solution was added. Final compound concentration=5 μM. Vortex and transfer 1504, plasma (or blood) into an Eppendorf for each time point. The time points […] were carried out in duplicate for each species.
(§4) After incubation 150 μL, plasma (or blood) was extracted with 600 μL, Acetonitrile containing with 1% TFA. Then, vortexed and centrifuged 10 min at 14600 rpm. 200 μL supernatant was dried under N2. The sample was reconstituted in 200 μL of H2O/CH3CN 98/2+0.1% FA+50 ng/ml Labetalol and analyzed using the analytical system used in solubility and stability studies.
(§5) For determination of the amount of the remaining peptide, the peak areas of the target compound at t0 and each time point […] were compared, resulting in “% remaining peptide”, following the equation: % remaining peptide=[(peak area peptide time)×100]/peak area peptide t0. The stability is expressed as “% remaining peptide”.

[4] = Stability testing of peptides in human plasma or blood; assay type: in vitro ADME; settings: 37° C.
Experimental: as §1, §2, §3, §4, §5

[5] = acetate buffer, pH 4.5, read-out: Solubility Acetate buffer pH 4.5
[6] = phosphate buffer, pH 7.4, read-out: Solubility phosphate buffer pH 7.4

solubility [1, 5]	solubility [1, 6]	EC50 (RXFP1)	Emax (RXFP1)	C0 [2]	half-life [2]	Cmax [2]	Tmax [2]	bioavailability [2]	Rat plasma stability % remaining T = 0 ([3]; rat plasma or blood, T = 0 (reference), 5 μM)	remaining at 1 h, 5 µM ([3]; whole blood, rat blood, 1 h, read-out: Rat stability in blood % remaining 1 h)	remaining at 4 h, 5 µM ([3]; whole blood, rat blood, 4 h, read-out: Rat stability in blood % remaining 4 h)	Human Plasma stability % remaining T = 0 ([4]; human plasma or blood, T = 0 (reference), 5 μM)	remaining at 1 h, 5 µM ([4]; whole blood, human blood, 1 h, read-out: Human stability in blood % remaining 1 h)	remaining at 4 h, 5 µM ([4]; whole blood, human blood, 4 h, read-out: Human stability in blood % remaining 4 h)	Compound
5900 µg/mL (≈ 1440 µM)	5900 µg/mL (≈ 1440 µM)	0.15 nM	98%	–	–	–	–	–	–	–	–	–	–	–	CCCCCCCCCCCCCCCC(=O)N[C@@H](CCC(=O)NCCCC[C@H](NC(=O)CC[C@H](NC(=O)CC[C@H](NC(=O)COCCOCCNC(=O)COCCOCCNC(=O)COCCOCCNC(=O)[C@H](CCCCN)NC(=O)[C@H](CCCCN)NC(=O)[C@H](CCCCN)NC(=O)[C@H](CCCNC(=N)N)NC(=O)C(C)(C)NC(=O)[C@H](CO)NC(=O)[C@H](Cc1c[nH]c2ccccc12)NC(=O)[C@@H](NC(=O)[C@H](CO)NC(=O)[C@H](CCCC)NC(=O)CNC(=O)[C@H](CCC(=O)O)NC(=O)C(C)(C)NC(=O)C(C)(C)NC(=O)[C@@H](NC(=O)[C@H](CCC(N)=O)NC(=O)[C@H](C)NC(=O)[C@H](CCCNC(=N)N)NC(=O)[C@@H](NC(=O)[C@H](CCCCN)NC(=O)[C@H](CCC(=O)O)NC(=O)[C@H](CCCNC(=N)N)NC(=O)CNC(=O)[C@H](CCC(=O)O)NC(=O)[C@H](CC(C)C)NC(C)=O)C(C)C)[C@@H](C)CC)[C@@H](C)O)C(=O)O)C(=O)O)C(N)=O)C(=O)O [compound 109] (Ac-LEGREKVRAQI[Aib][Aib]EG[Nle]STWS[Aib]RKKK[AEEA][AEEA][AEEA][γGlu][γGlu]K([γGlu-Palmitoyl])-NH2)
7000 µg/mL (≈ 1740 µM)	7000 µg/mL (≈ 1740 µM)	–	89%	2900 nM	8.96 h	1700 nM	6 h	84%	–	–	–	–	–	–	CCCCCCCCCCCCCCCC(=O)N[C@@H](CCC(=O)N[C@@H](CCC(=O)N[C@@H](CCC(=O)NCCCC[C@H](NC(=O)CCOCCOCCOCCOCCOCCOCCOCCOCCOCCOCCOCCOCCNC(=O)[C@H](CCCCN)NC(=O)[C@H](CCCNC(=N)N)NC(=O)C(C)(C)NC(=O)[C@H](CO)NC(=O)[C@H](Cc1c[nH]c2ccccc12)NC(=O)[C@@H](NC(=O)[C@H](CO)NC(=O)[C@H](CCSC)NC(=O)CNC(=O)[C@H](CCC(=O)O)NC(=O)C(C)(C)NC(=O)C(C)(C)NC(=O)[C@@H](NC(=O)[C@H](CCC(N)=O)NC(=O)[C@H](C)NC(=O)[C@H](CCCNC(=N)N)NC(=O)[C@@H](NC(=O)[C@H](CCCCN)NC(=O)[C@H](CCC(=O)O)NC(=O)[C@H](CCCNC(=N)N)NC(=O)CNC(=O)[C@H](CCC(=O)O)NC(=O)[C@H](CC(C)C)NC(C)=O)C(C)C)[C@@H](C)CC)[C@@H](C)O)C(N)=O)C(=O)O)C(=O)O)C(=O)O [compound 23] (Ac-LEGREKVRAQI[Aib][Aib]EGMSTWS[Aib]RK[PEG12]K([γGlu-γGlu-γGlu-Palmitoyl])-NH2)
5600 µg/mL (≈ 1310 µM)	5600 µg/mL (≈ 1310 µM)	–	87%	–	–	–	–	–	–	–	–	–	–	–	CCCCCCCCCCCCCCCCCC(=O)N[C@@H](CCC(=O)N[C@@H](CCC(=O)N[C@@H](CCC(=O)NCCCOCCOCCOCCCNC(=O)COCC(=O)NCCCOCCOCCOCCCNC(=O)COCC(=O)NCCCC[C@H](NC(=O)[C@H](CCCCNC(C)=O)NC(=O)[C@H](CCCCN)NC(=O)[C@H](CCCNC(=N)N)NC(=O)C(C)(C)NC(=O)[C@H](CO)NC(=O)[C@H](Cc1c[nH]c2ccccc12)NC(=O)[C@@H](NC(=O)[C@H](CO)NC(=O)[C@H](CCCC)NC(=O)CNC(=O)[C@H](CCC(=O)O)NC(=O)C(C)(C)NC(=O)C(C)(C)NC(=O)[C@@H](NC(=O)[C@H](CCCCNC(C)=O)NC(=O)[C@H](C)NC(=O)[C@H](CCCNC(=N)N)NC(=O)[C@@H](NC(=O)[C@H](CCCCN)NC(=O)[C@H](CCC(=O)O)NC(=O)[C@H](CCCNC(=N)N)NC(=O)CNC(=O)[C@H](CCC(=O)O)NC(=O)[C@H](CC(C)C)NC(C)=O)C(C)C)[C@@H](C)CC)[C@@H](C)O)C(N)=O)C(=O)O)C(=O)O)C(=O)O [compound 95] (Ac-LEGREKVRAK(Ac)I[Aib][Aib]EG[Nle]STWS[Aib]RKK(Ac)K(X7)-NH2)
–	–	17.6 nM	87%	4770 nM	4.3 h	1700 nM	6 h	53%	100%	110%	93%	100%	110%	91%	CCCCCCCCCCCCCCCC(=O)N[C@@H](CCC(=O)N[C@@H](CCC(=O)N[C@@H](CCC(=O)NCCCC[C@H](NC(=O)[C@H](CCCCN)NC(=O)[C@H](CCCNC(=N)N)NC(=O)C(C)(C)NC(=O)[C@H](CO)NC(=O)[C@H](Cc1c[nH]c2ccccc12)NC(=O)[C@@H](NC(=O)[C@H](CO)NC(=O)[C@H](CCSC)NC(=O)CNC(=O)[C@H](CCC(=O)O)NC(=O)C(C)(C)NC(=O)C(C)(C)NC(=O)[C@@H](NC(=O)[C@H](CCC(N)=O)NC(=O)[C@H](C)NC(=O)[C@H](CCCNC(=N)N)NC(=O)[C@@H](NC(=O)[C@H](CCCCN)NC(=O)[C@H](CCC(=O)O)NC(=O)[C@H](CCCNC(=N)N)NC(=O)CNC(=O)[C@H](CCC(=O)O)NC(=O)[C@H](CC(C)C)NC(C)=O)C(C)C)[C@@H](C)CC)[C@@H](C)O)C(N)=O)C(=O)O)C(=O)O)C(=O)O [compound 7] (Ac-LEGREKVRAQI[Aib][Aib]EGMSTWS[Aib]RKK([γGlu-γGlu-γGlu-Palmitoyl])-NH2)
